# Values of other authors, collected in patent publication US20230416219A1, “R-MDMA CRYSTAL FORMS” (Mind Medicine, Inc., priority 2022, published 2023).
# Assays:
# [1] = system: parkinsonian animal model
# 5-HT2A receptors = 5-HT2A receptors (Homo sapiens, UniProt P28223)
# [2] = in vivo
# DAT = DAT (Homo sapiens, UniProt Q01959)
# SERT = SERT (Homo sapiens, UniProt P31645)
# Chain of SERT (P31645 whole entry, species assumed): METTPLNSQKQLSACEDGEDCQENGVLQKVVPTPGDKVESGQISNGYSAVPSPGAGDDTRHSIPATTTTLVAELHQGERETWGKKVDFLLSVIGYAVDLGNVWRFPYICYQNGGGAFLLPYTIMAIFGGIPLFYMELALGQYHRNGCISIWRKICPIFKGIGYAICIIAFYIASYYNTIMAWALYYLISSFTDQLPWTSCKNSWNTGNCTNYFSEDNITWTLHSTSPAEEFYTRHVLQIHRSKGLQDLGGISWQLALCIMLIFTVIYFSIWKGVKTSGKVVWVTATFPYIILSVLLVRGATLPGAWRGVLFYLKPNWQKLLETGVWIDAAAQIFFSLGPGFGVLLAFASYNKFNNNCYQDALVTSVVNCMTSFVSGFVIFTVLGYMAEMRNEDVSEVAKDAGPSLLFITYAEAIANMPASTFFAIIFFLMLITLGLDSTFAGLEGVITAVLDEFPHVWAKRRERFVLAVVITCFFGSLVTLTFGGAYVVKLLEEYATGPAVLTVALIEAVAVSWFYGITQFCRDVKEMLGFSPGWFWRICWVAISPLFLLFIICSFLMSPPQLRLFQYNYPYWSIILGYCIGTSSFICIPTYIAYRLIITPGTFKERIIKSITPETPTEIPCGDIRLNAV
# Chain of 5-HT2A receptors (P28223 whole entry): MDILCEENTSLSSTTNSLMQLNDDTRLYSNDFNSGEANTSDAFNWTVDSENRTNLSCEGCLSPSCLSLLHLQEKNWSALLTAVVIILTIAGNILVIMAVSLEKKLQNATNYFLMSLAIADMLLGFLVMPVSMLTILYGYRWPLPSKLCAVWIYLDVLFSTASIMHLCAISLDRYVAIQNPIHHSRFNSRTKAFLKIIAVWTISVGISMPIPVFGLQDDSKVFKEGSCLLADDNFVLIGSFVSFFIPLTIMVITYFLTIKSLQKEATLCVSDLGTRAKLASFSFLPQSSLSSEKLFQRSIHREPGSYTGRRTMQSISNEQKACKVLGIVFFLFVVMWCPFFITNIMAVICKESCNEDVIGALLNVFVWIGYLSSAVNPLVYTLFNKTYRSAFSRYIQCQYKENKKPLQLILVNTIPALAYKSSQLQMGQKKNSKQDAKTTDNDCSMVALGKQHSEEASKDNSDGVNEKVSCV
# Chain of DAT (Q01959 whole entry, species assumed): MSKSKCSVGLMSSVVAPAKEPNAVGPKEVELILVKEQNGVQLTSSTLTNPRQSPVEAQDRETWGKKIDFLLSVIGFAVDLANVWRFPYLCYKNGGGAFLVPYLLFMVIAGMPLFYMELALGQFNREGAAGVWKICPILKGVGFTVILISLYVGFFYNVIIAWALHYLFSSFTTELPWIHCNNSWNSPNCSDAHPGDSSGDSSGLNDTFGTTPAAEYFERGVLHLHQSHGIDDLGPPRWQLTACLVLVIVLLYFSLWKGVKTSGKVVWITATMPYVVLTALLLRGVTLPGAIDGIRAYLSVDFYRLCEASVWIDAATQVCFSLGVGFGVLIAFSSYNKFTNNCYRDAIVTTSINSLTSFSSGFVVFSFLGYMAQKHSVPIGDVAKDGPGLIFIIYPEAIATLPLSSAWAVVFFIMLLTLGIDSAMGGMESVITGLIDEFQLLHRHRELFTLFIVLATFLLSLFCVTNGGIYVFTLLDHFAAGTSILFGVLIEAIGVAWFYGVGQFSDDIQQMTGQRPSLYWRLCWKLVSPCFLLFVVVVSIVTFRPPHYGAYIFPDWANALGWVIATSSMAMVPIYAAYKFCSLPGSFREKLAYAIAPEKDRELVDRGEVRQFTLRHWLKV
Structure (SMILES),duration of good ON-time [1],severity of peak-dose dyskinesia [1],selectivity for 5-HT2A receptors (5-HT2A receptors),hyperthermia [2],affinity for DAT (DAT),affinity for SERT (SERT),total duration of ON-time [1]
CN[C@H](C)Cc1ccc2c(c1)OCO2 [R-MDMA],increased,decreased,selective compound for 5-HT2A receptors,does not produce hyperthermia,,,
CN[C@@H](C)Cc1ccc2c(c1)OCO2 [S-MDMA],,exacerbated,,,moderate affinity,high affinity,extended
